Reference: patent US20150148234A1, “HERBICIDE-RESISTANT SUNFLOWER PLANTS WITH MULTIPLE HERBICIDE RESISTANT ALLELES OF AHASL1 AND METHODS OF USE” (NIDERA S.A., priority 2013, published 2015)

Legend:
Test in all cases: imazapyr whole plant greenhouse test (Example 2)
Type in all cases: in vivo
[1] = system: sunflower hybrid H1 (L1 × L2), A205V
Protocol: (§1) Seeds were sown in Petri dishes and, after germination, plantlets were transplanted to pots of 10 cm of diameter in a potting media consisting of equal parts of vermiculite, soil and sand. Plants were grown in a greenhouse under natural light conditions supplemented with 400 W sodium halide lamps to provide a 16 hr daylength. Day/night temperatures were 25 and 20 ° C., respectively. At the V2-V4 stage (Schneiter & Miller (1981) Crop Sci. 21:901-903) 10 plants of each genotype were randomly assigned to each treatment consisting of eight imazapyr doses (0, 40, 80, 160, 240, 320, 400 and 480 g ai/ha, corresponding to untreated, 0.5×, 1×, 2×, 3×, 4×, 5× and 6×, respectively), and a zero-time biomass determination. Experiment was arranged as a randomized block design with a full factorial (sunflower line×treatment) arrangement of treatments and 10 replications.
(§2) On the day of herbicide application ten plants of each genotype were cut at the cotyledonal node and dried at 60° C. for 48 hrs for zero-time dried weight determination.
(§3) The remaining plants were maintained for 14 days after imazapyr treatment (DAT) and their height, Phytotoxicity Index (PI) and above ground dry biomass were determined Height was determined as the distance between the cotyledonal node and the apex of each plant. Above ground biomass data from each line were converted to biomass accumulation after application by subtracting the appropriate average zero- time biomass from each sample. Dry biomass data were converted to percentages of the untreated control plants within each line to allow direct comparisons between groups.

[2] = system: sunflower line L5 (BTK 47), susceptible, WT; details: for Phytotoxicity Index (0-9) 14 days after treatment / biomass accumulation 14 days after treatment, % of untreated / plant height 14 days after treatment, % of untreated: L5; for height reduction: susceptible line
Protocol: as §1, §2, §3

[3] = system: sunflower line L2, A205V
Protocol: as §1, §2, §3

For `CC(C)C1(C)N=C(c2ncccc2C(=O)O)NC1=O` (stereo not shown) [imazapyr], the “Phytotoxicity Index (0-9) 14 days after treatment” value (shortened to “Phytotoxicity Index (0-9) 14 days”) ([1]; dose 0.5 (0.5x, 40 g ai/ha)) was 0, the “biomass accumulation 14 days after treatment, % of untreated” value ([1]; dose 0.5 (0.5x, 40 g ai/ha)) was 95.0% and the “plant height 14 days after treatment, % of untreated” value ([1]; dose 0.5 (0.5x, 40 g ai/ha)) was 99.5%. For the same compound, the “Phytotoxicity Index (0-9) 14 days” value ([1]; dose 1 (1x, 80 g ai/ha)) was 0, the “biomass accumulation 14 days after treatment, % of untreated” value ([1]; dose 1 (1x, 80 g ai/ha)) was 89.6% and the “plant height 14 days after treatment, % of untreated” value ([1]; dose 1 (1x, 80 g ai/ha)) was 99.5%. The “Phytotoxicity Index (0-9) 14 days” value ([1]; dose 2 (2x, 160 g ai/ha)) was 1.8, the “biomass accumulation 14 days after treatment, % of untreated” value ([1]; dose 2 (2x, 160 g ai/ha)) was 75.5% and the “plant height 14 days after treatment, % of untreated” value ([1]; dose 2 (2x, 160 g ai/ha)) was 78.6%. For the same compound, the “Phytotoxicity Index (0-9) 14 days” value ([1]; dose 3 (3x, 240 g ai/ha)) was 6.4, the “biomass accumulation 14 days after treatment, % of untreated” value ([1]; dose 3 (3x, 240 g ai/ha)) was 60.4% and the “plant height 14 days after treatment, % of untreated” value ([1]; dose 3 (3x, 240 g ai/ha)) was 48.4%. For the same compound, the “Phytotoxicity Index (0-9) 14 days” value ([1]; dose 4 (4x, 320 g ai/ha)) was 8.0, the “biomass accumulation 14 days after treatment, % of untreated” value ([1]; dose 4 (4x, 320 g ai/ha)) was 46.5% and the “plant height 14 days after treatment, % of untreated” value ([1]; dose 4 (4x, 320 g ai/ha)) was 28.9%. The “Phytotoxicity Index (0-9) 14 days” value ([1]; dose 5 (5x, 400 g ai/ha)) was 8.9, the “biomass accumulation 14 days after treatment, % of untreated” value ([1]; dose 5 (5x, 400 g ai/ha)) was 38.9% and the “plant height 14 days after treatment, % of untreated” value ([1]; dose 5 (5x, 400 g ai/ha)) was 25.3%. For the same compound, the “Phytotoxicity Index (0-9) 14 days” value ([1]; dose 6 (6x, 480 g ai/ha)) was 9.0, the “biomass accumulation 14 days after treatment, % of untreated” value ([1]; dose 6 (6x, 480 g ai/ha)) was 33.9% and the “plant height 14 days after treatment, % of untreated” value ([1]; dose 6 (6x, 480 g ai/ha)) was 27.1%. The “Phytotoxicity Index (0-9) 14 days” value ([2]; dose 0.5 (0.5x, 40 g ai/ha)) was 9, the “biomass accumulation 14 days after treatment, % of untreated” value ([2]; dose 0.5 (0.5x, 40 g ai/ha)) was 18.3% and the “plant height 14 days after treatment, % of untreated” value ([2]; dose 0.5 (0.5x, 40 g ai/ha)) was 20.14%. The “Phytotoxicity Index (0-9) 14 days” value ([2]; dose 1 (1x, 80 g ai/ha)) was 9, the “biomass accumulation 14 days after treatment, % of untreated” value ([2]; dose 1 (1x, 80 g ai/ha)) was 15.0% and the “plant height 14 days after treatment, % of untreated” value ([2]; dose 1 (1x, 80 g ai/ha)) was 14.58%. The “Phytotoxicity Index (0-9) 14 days” value ([2]; dose 2 (2x, 160 g ai/ha)) was 9, the “biomass accumulation 14 days after treatment, % of untreated” value ([2]; dose 2 (2x, 160 g ai/ha)) was 15.0% and the “plant height 14 days after treatment, % of untreated” value ([2]; dose 2 (2x, 160 g ai/ha)) was 14.58%. The “Phytotoxicity Index (0-9) 14 days” value ([2]; dose 3 (3x, 240 g ai/ha)) was 9, the “biomass accumulation 14 days after treatment, % of untreated” value ([2]; dose 3 (3x, 240 g ai/ha)) was 15.0% and the “plant height 14 days after treatment, % of untreated” value ([2]; dose 3 (3x, 240 g ai/ha)) was 14.58%. The “Phytotoxicity Index (0-9) 14 days” value ([2]; dose 4 (4x, 320 g ai/ha)) was 9, the “biomass accumulation 14 days after treatment, % of untreated” value ([2]; dose 4 (4x, 320 g ai/ha)) was 15.0% and the “plant height 14 days after treatment, % of untreated” value ([2]; dose 4 (4x, 320 g ai/ha)) was 14.58%. For the same compound, the “Phytotoxicity Index (0-9) 14 days” value ([2]; dose 5 (5x, 400 g ai/ha)) was 9, the “biomass accumulation 14 days after treatment, % of untreated” value ([2]; dose 5 (5x, 400 g ai/ha)) was 15.0% and the “plant height 14 days after treatment, % of untreated” value ([2]; dose 5 (5x, 400 g ai/ha)) was 14.58%. The “Phytotoxicity Index (0-9) 14 days” value ([2]; dose 6 (6x, 480 g ai/ha)) was 9, the “biomass accumulation 14 days after treatment, % of untreated” value ([2]; dose 6 (6x, 480 g ai/ha)) was 15.0% and the “plant height 14 days after treatment, % of untreated” value ([2]; dose 6 (6x, 480 g ai/ha)) was 14.58%. The height reduction ([2]; 0.5x, 14 DAT) was 85%, the height reduction ([2]; from 1x to 6x, of the untreated control plants) was “approximately 85%” and the “Phytotoxicity Index (0-9) 14 days” value ([3]; dose 0.5 (0.5x, 40 g ai/ha)) was 0. The “biomass accumulation 14 days after treatment, % of untreated” value ([3]; dose 0.5 (0.5x, 40 g ai/ha)) was 99.2%, the “plant height 14 days after treatment, % of untreated” value ([3]; dose 0.5 (0.5x, 40 g ai/ha)) was 99.2% and the “Phytotoxicity Index (0-9) 14 days” value ([3]; dose 1 (1x, 80 g ai/ha)) was 0. For the same compound, the “biomass accumulation 14 days after treatment, % of untreated” value ([3]; dose 1 (1x, 80 g ai/ha)) was 85.0%, the “plant height 14 days after treatment, % of untreated” value ([3]; dose 1 (1x, 80 g ai/ha)) was 98.1% and the “Phytotoxicity Index (0-9) 14 days” value ([3]; dose 2 (2x, 160 g ai/ha)) was 3.1. For the same compound, the “biomass accumulation 14 days after treatment, % of untreated” value ([3]; dose 2 (2x, 160 g ai/ha)) was 58.1%, the “plant height 14 days after treatment, % of untreated” value ([3]; dose 2 (2x, 160 g ai/ha)) was 63.6% and the “Phytotoxicity Index (0-9) 14 days” value ([3]; dose 3 (3x, 240 g ai/ha)) was 3.9. The “biomass accumulation 14 days after treatment, % of untreated” value ([3]; dose 3 (3x, 240 g ai/ha)) was 48.1%, the “plant height 14 days after treatment, % of untreated” value ([3]; dose 3 (3x, 240 g ai/ha)) was 51.9% and the “Phytotoxicity Index (0-9) 14 days” value ([3]; dose 4 (4x, 320 g ai/ha)) was 5.9. The “biomass accumulation 14 days after treatment, % of untreated” value ([3]; dose 4 (4x, 320 g ai/ha)) was 28.8%, the “plant height 14 days after treatment, % of untreated” value ([3]; dose 4 (4x, 320 g ai/ha)) was 27.5% and the “Phytotoxicity Index (0-9) 14 days” value ([3]; dose 5 (5x, 400 g ai/ha)) was 6.9. The “biomass accumulation 14 days after treatment, % of untreated” value ([3]; dose 5 (5x, 400 g ai/ha)) was 27.4%, the “plant height 14 days after treatment, % of untreated” value ([3]; dose 5 (5x, 400 g ai/ha)) was 26.0% and the “Phytotoxicity Index (0-9) 14 days” value ([3]; dose 6 (6x, 480 g ai/ha)) was 6.7. For the same compound, the “biomass accumulation 14 days after treatment, % of untreated” value ([3]; dose 6 (6x, 480 g ai/ha)) was 24.9%.
